Target: T1, NOX (Homo sapiens, UniProt P04839)
T1 construct: HL60 differentiation to the neutrophil phenotype was triggered by adding Me2SO; endogenous in cells; host or cells: HL-60 cells differentiated with DMSO (1.25% v/v, 6 days) to the neutrophil phenotype
T1 sequence (P04839 1-570): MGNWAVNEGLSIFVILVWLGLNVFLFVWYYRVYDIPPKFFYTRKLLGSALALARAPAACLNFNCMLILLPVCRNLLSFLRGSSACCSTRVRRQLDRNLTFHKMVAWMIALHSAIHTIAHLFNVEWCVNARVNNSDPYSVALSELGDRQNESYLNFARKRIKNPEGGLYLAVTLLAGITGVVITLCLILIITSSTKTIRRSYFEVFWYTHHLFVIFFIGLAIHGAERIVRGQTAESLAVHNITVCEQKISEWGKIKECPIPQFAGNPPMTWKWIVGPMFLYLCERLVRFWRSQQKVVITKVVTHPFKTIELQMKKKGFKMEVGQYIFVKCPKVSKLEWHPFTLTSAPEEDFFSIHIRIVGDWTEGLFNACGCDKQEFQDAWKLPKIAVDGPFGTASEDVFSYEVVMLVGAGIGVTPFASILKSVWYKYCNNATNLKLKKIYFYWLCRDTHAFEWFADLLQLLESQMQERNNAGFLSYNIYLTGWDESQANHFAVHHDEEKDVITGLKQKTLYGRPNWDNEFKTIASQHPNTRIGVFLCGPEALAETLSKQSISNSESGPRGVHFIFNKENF
T1 sequence (P13498 1-195 partner): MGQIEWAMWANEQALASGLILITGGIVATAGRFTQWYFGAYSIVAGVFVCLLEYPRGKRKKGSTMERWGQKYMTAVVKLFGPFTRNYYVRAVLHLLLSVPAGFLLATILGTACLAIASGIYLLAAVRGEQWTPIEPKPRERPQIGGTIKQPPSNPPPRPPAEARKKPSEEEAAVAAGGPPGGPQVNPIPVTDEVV
Experiment: Amplex Red measurement of extracellular hydrogen peroxide (NOX activity) using DMSO-differentiated HL60 cells
Format: cell-based
Conditions: DMSO-differentiated HL60 cells; for Inhibition (%) of NOX activity: test concentration not given
Method: The activity of the compounds according to the invention may be tested for their activity in the inhibition or reduction of formation of reactive oxygen species (ROS) from oxygen in cells. The activity of the compounds is tested in the following cell cultures by different techniques such as nitroblue tetrazolium, Amplex Red, Chemiluminescence (Luminol) and 2′,7′-dichlorodihydrofluorescein diacetate (H2DCF-DA) according to the protocols detailed below.
Human acute myeloid leukemia cell line HL-60 was cultured in RPMI 1640 (Invitrogen) supplemented with 10% heat-inactivated calf serum, 2 mM glutamine, 100 U/mL penicillin (Sigma), and 100 μg streptomycin (Sigma) at 37° C. under a humidified atmosphere of 5% CO2. HL60 differentiation to the neutrophil phenotype was triggered by adding Me2SO (final concentration 1.25% v/v for 6 days) to the culture medium.
Extracellular hydrogen peroxide was measured using Amplex UltraRed (Molecular Probes). Cells were trypsinized (1× Trypsin-EDTA), collected by centrifugation, and resuspended in HBSS supplemented with 1% glucose. Cells were seeded into black 96-well plates at a density of 50,000 cells in 200 μl testing buffer (HBSS 1% glucose containing 0.005 U/mL horseradish peroxidase (Roche) and 50 μM Amplex Red in the presence or absence of compounds according to the invention. As a control, DPI was included at a final concentration of 10 μM The plates were placed in the fluorescent Optima Fluorescent plate reader and kept at 37° C. during 20 min. Fluorescence was measured for […] with excitation and emission wavelengths of 544 nm and 590 nm respectively. NOX activities were expressed as % of the activity in control cells. Residual activity of DPI-treated cells was usually <10%.
The Table 2 below summarizes the percentage of inhibition of NOX activity as measured by Amplex Red using DMSO-differentiated HL60 cells as described above:
The Table 3 below summarizes the IC50 of NOX activity as measured by Amplex Red using DMSO-differentiated HL60 cells as described above: […]

| Compound | Inhibition (%) of NOX activity [%] | IC50 [µM] |
| --- | --- | --- |
| Cn1[nH]c2cc(=O)n(CC3CN(Cc4ccccc4)CCO3)c(-c3ccc(Cl)cc3)c2c1=O (centres unmarked) [Compound 97, 5-[(4-benzylmorpholin-2-yl)methyl]-4-(4-chlorophenyl)-2-methyl-1H-pyrazolo[4,3-c] pyridine-3,6(2H,5H)-dione] | 89 | – |
| Cc1c2c(=O)n(C)[nH]c2cc(=O)n1Cc1ccccn1 [Compound 4, 2,4-Dimethyl-5-(Pyridin-2-Ylmethyl)-1H-Pyrazolo[4,3-c]Pyridine-3,6(2H,5H)-Dione] | 65 | < 5 |
| COCCn1[nH]c2cc(=O)n(CCOC)c(-c3ccc(Cl)cc3)c2c1=O [Compound 58, 4-(4-chlorophenyl)-2,5-bis(2-methoxyethyl)-1H-pyrazolo[4,3-c]pyridine-3,6 (2H,5H)-dione] | 95 | < 5 |
| Cc1c2c(=O)n(C)[nH]c2cc(=O)n1C [Compound 5, 2,4,5-Trimethyl-1H-Pyrazolo[4,3-c]Pyridine-3,6(2H,5H)-Dione] | 48 | < 5 |
| COCCn1[nH]c2cc(=O)n(-c3cccc(NC(C)=O)c3)c(C)c2c1=O [Compound 19, N-{3-[2-(2-methoxyethyl)-4-methyl-3,6-dioxo-1,2,3,6-tetrahydro-5H-pyrazolo[4,3-c]pyridin-5-yl]phenyl} acetamide] | 73 | < 5 |
| Cc1c2c(=O)n(CC(C)C)[nH]c2cc(=O)n1C1CCc2ccccc21 (centres unmarked) [Compound 48, 5-(2,3-dihydro-1H-inden-1-yl)-4-methyl-2-(2-methylpropyl)-1H-pyrazolo[4,3-c] pyridine-3,6(2H,5H)-dione] | 91 | < 5 |
| COCCn1[nH]c2cc(=O)n(CCOC)c(CCCOc3ccccc3)c2c1=O [Compound 94, 2,5-bis(2-methoxyethyl)-4-(3-phenoxypropyl)-1H-pyrazolo[4,3-c]pyridine-3,6 (2H,5H)-dione] | 90 | < 5 |
| Cn1c(COc2ccc(F)cc2)c2c(=O)n(CCN3CCOCC3)[nH]c2cc1=O [Compound 86, 4-[(4-fluorophenoxy)methyl]-5-methyl-2-(2-morpholin-4-ylethyl)-1H-pyrazolo[4,3-c] pyridine-3,6(2H,5H)-dione] | 87 | < 5 |
| CCCCc1c2c(=O)n(C)[nH]c2cc(=O)n1Cc1ccc(Cl)cc1 [Compound 8, 4-Butyl-5-(4-Chlorobenzyl)-2-Methyl-1H-Pyrazolo[4,3-c]Pyridine-3,6(2H,5H)-Dione] | 79 | < 5 |
| COc1cccc(Cn2c(C)c3c(=O)n(CCN4CCOCC4)[nH]c3cc2=O)c1 [Compound 83, 5-(3-methoxybenzyl)-4-methyl-2-(2-morpholin-4-ylethyl)-1H-pyrazolo[4,3-c] pyridine-3,6(2H,5H)-dione] | 89 | < 5 |
| Cc1c2c(=O)n(Cc3ccccc3)[nH]c2cc(=O)n1-c1cccc(OC(F)(F)F)c1 [Compound 3, 2-Benzyl-4-Methyl-5-[3-(Trifluoromethoxy)Phenyl]-1H-Pyrazolo[4,3-c]Pyridine-3,6(2H,5H)-Dione] | 63 | < 5 |
| COc1cccc(Cc2c3c(=O)n(Cc4ccccc4)[nH]c3cc(=O)n2Cc2ccccn2)c1 [Compound 21, 2-benzyl-4-(3-methoxybenzyl)-5-(pyridin-2-ylmethyl)-1H-pyrazolo[4,3-c] pyridine-3,6(2H,5H)-dione] | 74 | < 5 |
| Cc1c2c(=O)n(Cc3ccc(Cl)cc3)[nH]c2cc(=O)n1Cc1ccccn1 [Compound 2, 2-(4-Chlorobenzyl)-4-Methyl-5-(Pyridin-2-Ylmethyl)-1H-Pyrazolo[4,3-c]Pyridine-3,6(2H,5H)-Dione] | 61 | < 5 |
| Cc1c2c(=O)n(C3CCCCC3)[nH]c2cc(=O)n1Cc1ccccc1CN1CCOCC1 [Compound 13, 2-Cyclohexyl-4-Methyl-5-[2-(Morpholin-4-Ylmethyl)Benzyl]-1H-Pyrazolo[4,3-c]Pyridine-3,6(2H,5H)-Dione] | 56 | < 5 |
| COCCn1[nH]c2cc(=O)n(CC(=O)N3CCOCC3)c(C)c2c1=O [Compound 20] | 75 | < 5 |
| Cc1c2c(=O)n(CC(C)C)[nH]c2cc(=O)n1Cc1cccnc1 [Compound 44, 4-methyl-2-(2-methylpropyl)-5-(pyridin-3-ylmethyl)-1H-pyrazolo[4,3-c]pyridine-3,6 (2H,5H)-dione] | 78 | < 5 |
| Cc1c2c(=O)n(C)[nH]c2cc(=O)n1Cc1ccco1 [Compound 6, 5-(Furan-2-Ylmethyl)-2,4-Dimethyl-1H-Pyrazolo[4,3-c]Pyridine-3,6(2H,5H)-Dione] | 74 | < 5 |
| COCCn1[nH]c2cc(=O)n(C)c(-c3ccc(Cl)cc3)c2c1=O [Compound 77, 4-(4-chlorophenyl)-2-(2-methoxyethyl)-5-methyl-1H-pyrazolo[4,3-c]pyridine-3,6 (2H,5H)-dione] | 90 | < 5 |
| CC(=O)Nc1cccc(Cn2c(C)c3c(=O)n(CCc4ccccc4)[nH]c3cc2=O)c1 [Compound 28, N-(3-{[4-methyl-3,6-dioxo-2-(2-phenylethyl)-1,2,3,6-tetrahydro-5H-pyrazolo[4,3-c]pyridin-5-yl]methyl}phenyl) acetamide] | 78 | < 5 |
| COCCn1[nH]c2cc(=O)n(CCc3ccccn3)c(C)c2c1=O [Compound 15, 2-(2-Methoxyethyl)-4-Methyl-5-(2-Pyridin-2-Ylethyl)-1H-Pyrazolo[4,3-c]Pyridine-3,6(2H,5H)-Dione] | 72 | < 5 |
| O=c1c2c(COc3ccc(F)cc3)n(Cc3ccc(Cl)cc3)c(=O)cc2[nH]n1CCN1CCOCC1 [Compound 51, 5-(4-chlorobenzyl)-4-[(4-fluorophenoxy)methyl]-2-(2-morpholin-4-ylethyl)-1H-pyrazolo[4,3-c]pyridine-3,6 (2H,5H)-dione] | 76 | < 5 |
| Cn1[nH]c2cc(=O)n(CC3CNC(=O)C3)c(-c3ccc(Cl)cc3)c2c1=O (centres unmarked) [Compound 100, 4-(4-chlorophenyl)-2-methyl-5-[(5-oxopyrrolidin-3-yl)methyl]-1H-pyrazolo[4,3-c] pyridine-3,6(2H,5H)-dione] | 90 | – |
| COCCn1[nH]c2cc(=O)n(CC(=O)N3CCN(Cc4ccccc4)CC3)c(C)c2c1=O [Compound 35, 5-[2-(4-benzylpiperazin-1-yl)-2-oxoethyl]-2-(2-methoxyethyl)-4-methyl-1H-pyrazolo [4,3-c]pyridine-3,6(2H,5H)-dione] | 72 | < 5 |
